These results are taken from US6844344B2, “Benzofuran derivatives” (Eli Lilly and Company, priority 1999, dated 2005).

Structures are written as SMILES. Where a name gives a salt, the structure may show the parent alone.

Consider `COc1cccc2sc(C3CCN(C[C@H](O)COc4cccc5c4OC(C)(C)C5)[C@@H](C)C3)cc12.O=C(O)C(=O)O` (stereo in doubt) [Example 8, (2S)-(+)-1-(2,3-Dihydro-2,2-dimethylbenzofuran-7-yl)oxy-3-[(2S, 4R)-4-(4-methoxybenzo[b]thiophen-2-yl)-2-methylpiperidinyl]-2-propanol Oxalate], for which the melting point is 145 to 148 °C.
In the case of `COc1cccc2sc([C@@H]3CCN(C[C@H](O)COc4cccc5oc(C)cc45)[C@H](C)C3)cc12` (as salt: oxalate) [Example 26, (2S)-(−)-3-[(2R,4R)-4-(4-Methoxybenzo[b]thiophen-2-yl)-2-methylpiperidin-1-yl]-1-(2-methylbenzofuran-4-yl)oxy-2-propanol] it was 101.2 to 109.5 °C.
For the molecule `COc1ccc2cc([C@H]3CCN(C[C@H](O)COc4cccc5occc45)[C@@H](C)C3)sc2c1.O=C(O)C(=O)O` [Example 3, (2S)-(+)-1-(Benzofuran-4-yl)oxy-3-[(2S.4S)-4-(6-methoxybenzo[b]thiophen-2-yl)-2-methylpiperidinyl]-2-propanol Oxalate], the melting point lay in the range of 97 to 102 °C.
The value for `COc1cccc2sc([C@H]3CCN(C[C@H](O)COc4cccc5c4OC(C)(C)C5)[C@H](C)C3)cc12.O=C(O)C(=O)O` [Example 10, (2S)-1-(2,3-Dihydro-2,2-dimethylbenzofuran-7-yl)oxy-3-[(2R,4S)-4-(4-methoxybenzo[b]thiophen-2-yl)-2-methylpiperidinyl]-2-propanol Oxalate] was 93 to 96 °C; that for `COc1cccc2sc([C@@H]3CCN(C[C@H](O)COc4cccc5c4OC(C)(C)C5)[C@@H](C)C3)cc12.O=C(O)C(=O)O` [Example 9, (2S)-1-(2,3-Dihydro-2,2-dimethylbenzofuran-7-yl)oxy-3-[(2S,4R)-4-(4-methoxybenzo[b]thiophen-2-yl)-2-methylylpiperidinyl]-2-propanol Oxalate] was 83 to 86 °C; that for `COc1ccc2cc([C@@H]3CCN(C[C@H](O)COc4cccc5occc45)[C@H](C)C3)sc2c1.O=C(O)C(=O)O` [Example 2, (2S)-(−)-1-(Benzofuran-4-yl)oxy-3-[(2R,4R)-4-(6-methoxybenzo[b]thiophen-2-yl)-2-methylpiperidinyl]-2-propanol Oxalate] was 97 to 102 °C (dec.).
The value for `Cc1cc2c(OC[C@@H](O)CN3CC[C@H](c4cc5cc(Cl)ccc5s4)C[C@H]3C)cccc2o1` (as salt: salt) [Example 33, (2S)-(−)-3-[(2R,4S)-4-(5-Chloro-benzo[b]thiophen-2-yl)-2-methylpiperidin-1-yl]-1-(2-methylbenzofuran-4-yl)oxy-2-propanol] was 81.4 °C (dec.); that for `COc1cccc2sc(C3CCN(C[C@H](O)COc4cccc5oc(C)cc45)C(C)(C)C3)cc12` (single isomer, unassigned; isomer 1) (as salt: hydrochloride) [Example 34] was 101.1 °C (dec.); that for `COc1ccc2cc([C@@H]3CCN(C[C@H](O)COc4cccc5occc45)[C@@H](C)C3)sc2c1.O=C(O)C(=O)O` [Example 4, (2S)-1-(Benzofuran-4-yl)oxy-3-[(2S,4R)-4-(6-methoxybenzo[b]thiophen-2-yl)-2-methylpiperidinyl]-2-propanol Oxalate] was 130 to 133 °C.
In the case of `COc1cccc2sc(C3CCN(C[C@H](O)COc4cccc5oc(C)cc45)C(C)(C)C3)cc12` (single isomer, unassigned; isomer 2) (as salt: hydrochloride) [Example 35] it was 83.5 °C (dec.).
For `COc1cccc2sc([C@H]3CCN(C[C@H](O)COc4cccc5oc(C)cc45)[C@@H](C)C3)cc12` (as salt: oxalate) [Example 27, (2S)-(+)-3-[(2S,4S)-4-(4-Methoxybenzo[b]thiophen-2-yl)-2-methylpiperidin-1-yl]-1-(2-methylbenzofuran-4-yl)oxy-2-propanol], the melting point was 98 °C (dec.).
The value for `Cc1cc2c(OC[C@@H](O)CN3CC[C@@H](c4cc5cc(Cl)ccc5s4)C[C@H]3C)cccc2o1` (as salt: salt) [Example 30, (2S)-(−)-3-[(2R,4R)-4-(5-Chlorobenzo[b]thiophen-2-yl)-2-methylpiperidin-1-yl]-1-(2-methylbenzofuran-4-yl)oxy-2-propanol] was 88.5 °C (dec.); that for `COc1cccc2sc([C@H]3CCN(C[C@H](O)COc4cccc5oc(C)cc45)[C@H](C)C3)cc12` (as salt: oxalate) [Example 29, (2S)-(+)-3-[(2R,4S)-4-(4-Methoxybenzo[b]thiophen-2-yl)-2-methylpiperidin-1-yl]-1-(2-methylbenzofuran-4-yl)oxy-2-propanol] was 92.5 °C (dec.); that for `O=C(O)C(=O)O.O[C@H](COc1cccc2occc12)CN1CCC(c2cc3ccc(F)cc3s2)CC1` [Example 6, (2S)-(+)-1-(Benzofuran-4-yl)oxy-3-[4-(6-fluorobenzo[b]thiophen-2-yl)piperidinyl]-2-propanol Oxalate] was 196 to 198 °C (dec.).
In the case of `COc1cccc2sc([C@@H]3CCN(C[C@H](O)COc4cccc5c4OC(C)(C)C5)[C@H](C)C3)cc12.O=C(O)C(=O)O` [Example 7, (2S)-(−)-1-(2,3-Dihydro-2,2-dimethylbenzofuran-7-yl)oxy-3-[(2R,4R)-4-(4-methoxybenzo[b]thiophen-2-yl)-2-methylpiperidinyl]-2-propanol Oxalate] it was 88 to 93 °C; in that of `Cc1cc2c(OC[C@@H](O)CN3CC[C@H](c4cc5cc(Cl)ccc5s4)C[C@@H]3C)cccc2o1` (as salt: salt) [Example 31, (2S)-3-[(2S,4S)-4-(5-Chlorobenzo[b]thiophen-2-yl)-2-methylpiperidin-1-yl]-1-(2-methylbenzofuran-4-yl)oxy-2-propanol], 204.1 to 208.3 °C.
As to `Cc1cc2c(OC[C@@H](O)CN3CC[C@@H](c4cc5cc(Cl)ccc5s4)C[C@@H]3C)cccc2o1` (as salt: salt) [Example 32, (2S)-3-[(2S,4R)-4-(5-Chlorobenzo[b]thiophen-2-yl)-2-methylpiperidin-1-yl]-1-(2-methylbenzofuran-4-yl)oxy-2-propanol], the melting point was 78.5 °C (dec.).
The molecule `COc1cccc2sc([C@@H]3CCN(C[C@H](O)COc4cccc5oc(C)cc45)[C@@H](C)C3)cc12` (as salt: oxalate) [Example 28, (2S)-(−)-3-[(2S,4R)-4-(4-Methoxybenzo[b]thiophen-2-yl)-2-methylpiperidin-1-yl]-1-(2-methylbenzofuran-4-yl)oxy-2-propanol] came in with a melting point of 99.2 to 103 °C.

By melting point is commonly meant the temperature, or range, at which the solid turns liquid.
